The target in one data set is T1, Raf1 (c-Raf) (Homo sapiens, UniProt P04049).
T1 construct: Sf9 insect cell lysate containing full length 6 his-tagged recombinant human c—Raf; 6His; host or cells: Sf9 insect cells (c-Raf, used as lysate); E. coli (GST-MEK1, GST-MAPK)
Kind of data set: Raf1 Kinase Cascade Assay. Format: biochemical. On the procedure:
Raf1 Kinase Cascade Assay Procedure
(Specific Activity: ˜200 U/ml). Human Non-active Mek-1—GST and human GST-MAP kinase (recombinant proteins produced in E. coli).
Stock Solutions Raf Assay:
Assay Dilution Buffer (ADB): 2 OmM MOPS, pH 7.2, 25 mM B-glycerol phosphate, mM EGTA, 1 mM sodium orthovanadate, 1 mM dithiothreitol. Magnesium/ATP Cocktail: 500 AM cold ATP and 75 mM magnesium chloride in ADB.
Active Kinase: Human Active c—Raf: Use at 0.4 U per assay point. Non-active GST-MEK1: Use at 0.1, ug per assay point. Non-active GST-p42 MAP Kinase: Use at 1.0 tg per assay point.
TBST—Tris (50 mM, pH 7.5)-1H-, NaCl (150 mM), Tween-20 (0.05%) Superblock (Pierce) Anti—GST Ab (Pharmacia) Anti-Phospho MAPK (Sigma) Anti-Mouse Ab/Europium conjugate (Wallac)
Assay Procedure: First Stage: c—Raf Dependent Activation of GST-MEK and GST-MAPK Add […] of ADB per assay (i.e. per well of a 96 well plate) Add 10 ml of 0.5 mM cold ATP and 75 mM magnesium chloride in ADB. Add 2 ml of c—Raf (0.4 U/assay), in conjunction with 1.6 ml non-active MEKI (0.4 mg/assay). Add 4 ml of non-active GST-p42 MAP Kinase (1.0 mg/assay). Incubate for 60 minutes at 30° C. in a shaking incubator. Transfer this mixture to an anti—GST Ab coated 96 well plate (Nunc Immunosorb plates coated o/n with a—GST, then blocked with Pierce Superblock). Incubate for 60 minutes at 30° C. in a shaking incubator Wash 3×with TBST, add Anti-Phospho MAPK (Sigma) (1:3000)-1H-Incubate for 60 minutes at 30° C. in a shaking incubator Wash 3×with TBST, add Anti-Mouse Ab/Europium conjugate (Wallac) (1:500)-1H-Incubate for 60 minutes at 30° C. in a shaking incubator Wash 3×with TBST, Read plates in Wallac Victor model Plate Reader. Collect data analyze in Excel for single point and IC50 determinations.
IC50 determinations - done on compounds from single point assays with >80% inhibition. Typically Raf-1 assay is run at compound concentrations from 10 μM to 30 nM in half log dilutions. (% inhibition is determined for each compound concentration).

For data set [1], the system named is Human adenocarcinoma cell line LoVo. Kind of data set: Cell Based Screen for Inhibitors of Raf Kinase, LoVo. Conditions: four days incubation, SRB. On the procedure:
(§1) Cell Based Screen for Inhibitors of Raf Kinase.
(§2) Cell Lines: Human adenocarcinoma cell line LoVo which is known to be growth inhibited by low nM concentrations of a reference standard inhibitor of Ras and human adenocarcinoma cell line CaCo-2, which is known to be growth resistant to the same reference compound. Cell Media: RPMI 1640 with 10% Fetal Bovine Serum supplemented with L-glutamine and Pennicilin/Streptomycin. Compounds: Supplied usually as a 10 mM stock in 100% DMSO. Normal Saline: 150 mM NaCl Trichloroacetic Acid (TCA): 50% (w/v) in water Sulforhodamine B (SRB): 0.4% (w/v) in 1% Acetic Acid Tris Base: 10 mM in water
(§3) Cells are plated at 2000 cells per well for cell line LoVo and 1500 cells for cell line CaCo-2 in 96 well plates. Cells are plated in media (200 μl) and allowed to adhere overnight at 37 ° C. At 24 hours post plating, compounds are added directly at a volume of 0.5 μl. For the qualitative screen (compounds screened at 25 μM) compound is added directly to cells. For the quantitative screen, compound is first diluted in DMSO to generate concentrations of compound or reference standard of: 1, 5, 10 and 25 μM. It is advisable to make the dilutions in an identical 96 well plate so that compounds may be added using a multichannel micropipettor set at 0.5 μl. The cells are then incubated for four days after which the media is removed using a 12 well manifold by first tipping the plate forward at a 45 degree angle and then inserting the manifold in an upright orientation to prevent the ti
(§4) of the manifold from disturbing cells at the bottom of the plate. 200 μl of normal saline is then added to each well using an 8 well multichannel pipettor, followed by the careful addition of 50 μl of 50% TCA. The plates are then incubated for 2 hours at 4 ° C, after which the supernatant is removed using the same technique as above and the plated washed twice with 200 ul water. The plates are then air dried and 50 μl of SRB stock solution is carefully added so that the entire bottom of each well is covered. This again may be used using an 8 well multichannel pipettor. The SRB is incubated with fixed cells for 15 minutes at room temperature after which the SRB is removed with the manifold as described above and the plates washed twice with 350 μl of 1% acetic acid per well each time.The plates are then air dried after which the bound SRB is released from protein by the addition of 200 µl of Tris base. Resolubilizing the SRB is aided by placing the plates on a rotator for 15-30 minutes. The absorbance of each well is determined at 550 or 562 nm using a microtiter plate reader.
(§5) Each compound or dilution thereof is performed in triplicate. Outliers are identified by visual inspection of the data. Each plate should have a “0” control (vehicle only). […] Quantitative Assay: A standard curve is constructed by plotting the concentration of compound against the average absorbance calculated at that concentration. A curve is plotted and the concentration at which the curve passes through the 50% the absorbance mark seen in the “0” control well is the IC50 calculated for that compound. Multiple entries for a given compound indicate that it was tested multiple times.

Data set [2] relates to human adenocarcinoma cell line CaCo-2. Kind of data set: Cell Based Screen for Inhibitors of Raf Kinase, CaCo-2. Conditions: four days incubation, SRB. On the procedure: as §1, §2, §3, §4, §5
For a further data set, the target named is Src (Homo sapiens, UniProt P12931). Kind of data set: c-Src Kinase Assay (ELISA). Format: biochemical. On the procedure: Inhibitors of Src (partially purified preparation purchased from Upstate Biotechnologies) tyrosine kinase activity are analyzed in an ELISA format. […] Horseradish Peroxidase (HRP)-conjugated anti-phosphotyrosine is used to detect phosphorylated peptide via a color reaction. Conditions recommended by the manufacturer are employed.
Reaction conditions: Five microliter aliquots of each compound prepared fresh at the time of the assay are added as a solution in lOmM HEPES pH 7.5, 10% DMSO to the reaction well. Thirty-five microliters of reaction mix containing Src, buffer and peptide/bovine serum albumin mix are added to the compound wells and incubated at 30° C. for 10 minutes (reaction buffer: 5 OmM TrisHCI pH 7.5, l0 mM MgCl2, O.lmM EGTA, 0.5 mM Na3 VO4)-1H-. The reaction is started by addition of 10 microliters of ATP, incubated at 30° C. for 1 hour, and stopped by addition of 20 microliters of 0.5 M EDTA. The reaction mixture with the phosphorylated peptide is then transferred to a streptavidin-coated microtiter plate (provided in the kit) and allowed to bind for 20 minutes. IUnbound peptide and reaction mixture is decanted and the plate is washed with PBS six times. HRP-conjugated phosphotyrosine antibody supplied in the kit is incubated with the plate for one hour, then decanted. The plate is again washed with PBS six times.
Activity is determined as % inhibition as calculated by the formula: (1−Abs/Abs(max) ) ×100=% inhibition.

Data set [3] concerns the target Rat2 fibroblasts stably transformed with v-Src/Hu c-Src fusion gene (Homo sapiens, UniProt P12931, cells depend on it, form not given). Kind of data set: Anchorage Independent Src-transformed Fibroblast Proliferation Assay. Format: cell-based, Rat. As to conditions: suspension growth, MTS reagent on Day 5; read-out: anch-indep src-tx fib IC50. On the procedure: Anchorage Independent Src-transformed Fibroblast Proliferation Assay
Rat2 fibroblasts stably transformed with a plasmid containing a CMV promotor controlled v-Src/Hu c-Src fusion gene in which the catalytic domain of human c-Src was inserted in place of the v-Src catalytic domain in the v-Src gene are used for the measurement of src dependent suspension growth. […] Multiple entries for a given compound indicate that it was tested multiple times.
In general terms: Formazan colour is commonly taken as a measure of viable cells.

The values that follow come from patent publication US20020026052A1, “3-cyanoquinolines, 3-cyano-1,6-naphthyridines, and 3-cyano-1,7-naphthyridines as protein kinase inhibitors” (American Home Products Corporation, priority 2000, published 2002).

“And” between values parts separate entries of the source, which are not always exact repeats. Equal entries are not always repeated. Some results are limits rather than exact numbers.

As usually defined, the IC50 is the midpoint of a concentration-inhibition curve. Low readings indicate higher potency, high ones lower potency. As a reminder, the melting point is the temperature, or range, at which the solid turns liquid.

Turning to “4-({3-Chloro-4-[(1-methyl-1H-imidazol-2-yl) sulfanyl]phenyl }amino)-7-[5-(1-pyridinyl]-3-quinolinecarbonitrile [Example 180]”, the concentration for half-maximal inhibition (IC50) stood at 3.7 nM against Raf1 (c-Raf), 5.6 nM in data set [1] and 930 nM in data set [2].

Regarding “4-{3-Chloro-4-[(1-methyl-1H-imidazol-2-yl) sulfanyl]anilino }-7-{5-[(4-ethyl-1-piperazinyl) methyl]-2-furyl }-3-quinolinecarbonitrile [Example 156]”, the 50% inhibitory concentration (IC50) against Raf1 (c-Raf) is 9 nM and 12 nM; in data set [1] it was 5.6 nM; in data set [2], 1000 nM.

Regarding `Cn1ccnc1Sc1ccc(Nc2c(C#N)cnc3cc(-c4csc(CN5CCOCC5)c4)ccc23)cc1Cl` [Example 33, 4-{3-chloro-4-[(1-methyl-1H-imidazol-2-yl)sulfanyl]anilino}-7-[5-(4-morpholinylmethyl)-3-thienyl]-3-quinolinecarbonitrile], the melting point fell in the range of 110 to 113 °C. Further, on Raf1 (c-Raf), the half-maximal inhibitory concentration (IC50) came to 6 nM. In data set [1] (Homo sapiens, LoVo, 96 h), this molecule displayed a concentration for half-maximal inhibition (IC50) of 6 nM.

Regarding `COc1cc(Nc2c(C#N)cnc3cc(-c4ccc(CNCCc5ccccn5)o4)ccc23)c(Cl)cc1Cl` [Example 74, 4-(2,4-Dichloro-5-methoxyanilino)-7-[5-({[2-(2-pyridinyl)ethyl]amino}methyl)-2-furyl]-3-quinolinecarbonitrile], the melting point lay in the range of 130 to 135 °C. In addition, on Src, the IC50 was 40 nM. Moreover, in data set [3], the GI50 was determined as 1400 nM.

`COc1cc(Nc2c(C#N)cnc3cc(-n4cccc4CN(C)C)ccc23)c(Cl)cc1Cl` [Example 93] yielded a melting point of 157 to 158 °C. In addition, the half-inhibitory concentration (IC50) at Src was 610 nM and 680 nM. Besides, in data set [3], the GI50 was more than 10000 nM.

With `COc1cc(Nc2c(C#N)cnc3cc(-c4cc5ccccc5s4)ccc23)c(Cl)cc1Cl` [Example 120, 7-(1-benzothien-2-yl)-4-(2,4-dichloro-5-methoxyanilino)-3-quinolinecarbonitrile], the melting point is 269 to 270 °C. The midpoint of inhibition on Src, the IC50, lay at 170 nM. Besides, the GI50 in data set [3] is more than 10000 nM.

The molecule `COc1cc(Nc2c(C#N)cnc3cc(C#CCN4CCOCC4)ccc23)c(Cl)cc1Cl` [Example 146, 4-(2 ,4-Dichloro-5-methoxyanilino)-7-[3-(4-morpholinyl)-1-propynyl]-3-quinolinecarbonitrile] had a melting point of 190 to 191 °C. On Src, it took 22 nM to reach half-maximal inhibition (IC50). The GI50 in data set [3] came out at 6500 nM.

On to `Cn1ccnc1Sc1ccc(Nc2c(C#N)cnc3cc(-c4ccc(CN5CCCCC5)o4)ccc23)cc1Cl` [Example 155, 4-{3-Chloro-4-[(1-methyl-1H-imidazol-2-yl)sulfanyl]anilino}-7-[5-(1-piperidinylmethyl)-2-furyl]-3-quinolinecarbonitrile], for which the melting point lay in the range of 214 to 215 °C. For the same molecule, on Raf1 (c-Raf), half-maximal inhibition (IC50) was put at 20 nM.

For `COc1cc(Nc2c(C#N)cnc3cc(-c4ccc(-c5ccccc5)cc4)ccc23)c(Cl)cc1Cl` [Example 165, 7-[1,1-Biphenyl]-4-yl-4-(2,4-dichloro-5-methoxyanilino)-3-quinolinecarbonitile], the “ELISA c-src % inhibition” value on Src (at 10 nM) is 28% at 10 nM. For the same molecule, in data set [3], the GI50 was more than 10000 nM.

Take `Cn1ccnc1Sc1ccc(Nc2c(C#N)cnc3cc(-c4ccc(CN5CCOCC5)cn4)ccc23)cc1Cl` [Example 187, 4-{3-Chloro-4-[(1-methyl-1H-inidazol-2-yl)sulfanyl]anilino}-7-[5-(4-morpholinylmethyl)-2-pyridinyl]-3-quinolinecarbonitrile]: the melting point fell in the range of 225 to 227 °C. Besides, the IC50 in data set [1] is 9 nM.

At Raf1 (c-Raf), `N#Cc1cnc2cc(-c3csc(CN4CCCCC4)c3)ccc2c1Nc1ccc(Sc2ccccc2)c(Cl)c1` [Example 462, 4-{[3-chloro-4-(phenylsulfanyl)phenyl]amino}-7-[5-(1-piperidinylmethyl)-3-thienyl]-3-quinolinecarbonitrile] returned an IC50 of 50 nM.

Molecule “(1-{4-[3-Cyano-4-(2,4-dichloro-5-methoxyanilino)-7-quinolinyl]benzyl }-4-piperidinyl) acetic acid [Example 100]” registered an IC50 at Src of 0.57 nM. The GI50 in data set [3] was 340 nM and 400 nM.

Take “(E)-3-[3-Cyano-4-(2,4-dichloro-5-methoxyanilino)-7-quinolinyl]-2-propenoic acid [Example 99]”: at Src, half-maximal inhibition (IC50) required 44 nM. For the same molecule, the GI50 in data set [3] is more than 10000 nM.
